Values joined by “and” are separate entries in the source; they are usually repeats but may differ in a detail not shown here. Identical values can stand only once.
Assays:
[1] = for vapor or sublimation pressure: Calculated from knudsen effusion weight loss; for Triple point temperature: DTA
[2] = Molar enthalpy of transition or fusion; settings: DSC

CCCCc1ccc(C(=O)O)cc1 [4-butylbenzoic acid]
[1], Crystal 1
Settings | vapor or sublimation pressure
333.16 K | 0.000164 kPa and 0.000162 kPa
335.16 K | 0.000211 kPa and 0.000212 kPa
337.14 K | 0.000263 kPa and 0.000262 kPa and 0.000261 kPa
339.17 K | 0.000323 kPa and 0.000328 kPa and 0.00033 kPa
341.17 K | 0.000422 kPa and 0.00042 kPa and 0.000408 kPa
343.16 K | 0.00052 kPa and 0.000522 kPa
345.15 K | 0.000645 kPa and 0.000629 kPa and 0.000622 kPa
347.13 K | 0.000804 kPa and 0.000786 kPa and 0.00078 kPa
349.15 K | 0.000994 kPa and 0.000968 kPa and 0.000978 kPa

Settings | Molar enthalpy of transition or fusion, Crystal 1 [kJ/mol] | Molar enthalpy of transition or fusion, Crystal 2 [kJ/mol] | Molar enthalpy of transition or fusion, Nematic liquid crystal [kJ/mol] | Triple point temperature, Crystal 1 [K] | Triple point temperature, Crystal 2 [K] | Triple point temperature, Nematic liquid crystal [K]
[1] | – | – | – | 374.6 | 309.64 | 387.98
[2] | 11.6 | 4.7 | 0.76 | – | – | –

CCc1ccc(C(=O)O)cc1 [4-ethylbenzoic acid]
[1], Crystal
Settings | vapor or sublimation pressure
321.17 K | 0.000214 kPa and 0.000211 kPa
323.16 K | 0.000272 kPa and 0.000265 kPa and 0.000263 kPa
325.22 K | 0.000347 kPa and 0.000335 kPa
327.17 K | 0.000419 kPa and 0.000418 kPa and 0.000436 kPa
329.34 K | 0.00055 kPa and 0.000542 kPa and 0.000527 kPa
331.2 K | 0.000666 kPa and 0.000651 kPa and 0.000637 kPa
333.14 K | 0.000826 kPa and 0.000818 kPa and 0.000803 kPa
335.25 K | 0.00103 kPa and 0.00101 kPa and 0.001 kPa

Crystal
Settings | Molar enthalpy of transition or fusion [kJ/mol] | Triple point temperature [K]
[1] | – | 385.2
[2] | 12.8 | –

CCCCCCCc1ccc(C(=O)O)cc1 [4-heptylbenzoic acid]
[1], Crystal 1
Settings | vapor or sublimation pressure
353.16 K | 0.000119 kPa and 0.000121 kPa and 0.000116 kPa
355.19 K | 0.000149 kPa and 0.000151 kPa
357.19 K | 0.000191 kPa and 0.000193 kPa and 0.000189 kPa
359.18 K | 0.000239 kPa and 0.00024 kPa
361.17 K | 0.000312 kPa and 0.0003 kPa and 0.000304 kPa
363.2 K | 0.000392 kPa and 0.000381 kPa
365.18 K | 0.000484 kPa and 0.000482 kPa and 0.000475 kPa
367.14 K | 0.000608 kPa and 0.000602 kPa and 0.000595 kPa
369.2 K | 0.000771 kPa and 0.000764 kPa and 0.000751 kPa

Settings | Molar enthalpy of transition or fusion, Crystal 1 [kJ/mol] | Molar enthalpy of transition or fusion, Crystal 2 [kJ/mol] | Molar enthalpy of transition or fusion, Nematic liquid crystal [kJ/mol] | Triple point temperature, Crystal 1 [K] | Triple point temperature, Crystal 2 [K] | Triple point temperature, Nematic liquid crystal [K]
[1] | – | – | – | 374.52 | 320.17 | 393.11
[2] | 14.3 | 7.4 | 1 | – | – | –

CCCCCCc1ccc(C(=O)O)cc1 [4-hexylbenzoic acid]
[1], Crystal 1
Settings | vapor or sublimation pressure
347.08 K | 0.00015 kPa and 0.000151 kPa and 0.000146 kPa
349.19 K | 0.000193 kPa and 0.000191 kPa and 0.000189 kPa
351.19 K | 0.000245 kPa and 0.000243 kPa and 0.000232 kPa
353.14 K | 0.000298 kPa and 0.000293 kPa and 0.000304 kPa
355.25 K | 0.000391 kPa and 0.000388 kPa and 0.000381 kPa
357.16 K | 0.000485 kPa and 0.00047 kPa and 0.000468 kPa
359.27 K | 0.000619 kPa and 0.000614 kPa and 0.000605 kPa
361.35 K | 0.000768 kPa and 0.000764 kPa and 0.000736 kPa
363.14 K | 0.000951 kPa and 0.000946 kPa and 0.000919 kPa

Settings | Molar enthalpy of transition or fusion, Crystal 1 [kJ/mol] | Molar enthalpy of transition or fusion, Crystal 3 [kJ/mol] | Triple point temperature, Crystal 1 [K] | Triple point temperature, Nematic liquid crystal [K]
[1] | – | – | 370.64 | 385.87
[2] | 0.95 | 12.9 | – | –

Cc1ccc(C(=O)O)cc1 [4-methylbenzoic acid]
[1], Crystal
Settings | vapor or sublimation pressure
319.68 K | 0.000137 kPa and 0.000133 kPa
322.14 K | 0.000182 kPa and 0.000179 kPa and 0.000174 kPa
324.62 K | 0.000235 kPa and 0.00023 kPa
327.08 K | 0.000309 kPa and 0.000307 kPa and 0.000312 kPa
329.73 K | 0.000421 kPa and 0.000415 kPa and 0.000408 kPa
332.11 K | 0.000536 kPa and 0.000529 kPa and 0.000515 kPa
334.63 K | 0.00071 kPa and 0.000689 kPa and 0.000685 kPa
337.33 K | 0.00092 kPa and 0.000891 kPa

Crystal
Settings | Molar enthalpy of transition or fusion [kJ/mol] | Triple point temperature [K]
[1] | – | 452.34
[2] | 22.5 | –

CCCCCCCCc1ccc(C(=O)O)cc1 [4-octylbenzoic acid]
[1]
Settings | vapor or sublimation pressure
356.67 K, Crystal 2 | 8.5e-05 kPa and 8.6e-05 kPa
358.22 K, Crystal 2 | 0.000102 kPa and 0.000103 kPa
359.66 K, Crystal 2 | 0.000127 kPa and 0.000126 kPa
361.16 K, Crystal 2 | 0.00015 kPa and 0.000148 kPa
362.71 K, Crystal 2 | 0.000182 kPa and 0.000181 kPa
364.25 K, Crystal 2 | 0.000213 kPa and 0.000211 kPa
365.68 K, Crystal 2 | 0.000255 kPa and 0.000253 kPa
367.46 K, Crystal 1 | 0.000302 kPa and 0.000305 kPa
368.85 K, Crystal 1 | 0.000356 kPa and 0.000355 kPa
370.35 K, Crystal 1 | 0.000426 kPa and 0.000424 kPa
371.86 K, Crystal 1 | 0.000504 kPa and 0.000502 kPa

Settings | Molar enthalpy of transition or fusion, Crystal 1 [kJ/mol] | Molar enthalpy of transition or fusion, Crystal 2 [kJ/mol] | Molar enthalpy of transition or fusion, Crystal 3 [kJ/mol] | Molar enthalpy of transition or fusion, Nematic liquid crystal [kJ/mol] | Triple point temperature, Crystal 1 [K] | Triple point temperature, Crystal 2 [K] | Triple point temperature, Crystal 3 [K] | Triple point temperature, Nematic liquid crystal [K]
[1] | – | – | – | – | 373.25 | 366.56 | 305.46 | 385.54
[2] | 14.3 | 0.47 | 5.4 | 1.2 | – | – | – | –

CCCCCc1ccc(C(=O)O)cc1 [4-pentylbenzoic acid]
[1], Crystal 1
Settings | vapor or sublimation pressure
341.16 K | 0.000174 kPa and 0.000177 kPa and 0.000169 kPa
343.16 K | 0.000223 kPa and 0.000214 kPa
345.16 K | 0.000279 kPa and 0.000271 kPa
347.18 K | 0.000358 kPa and 0.000355 kPa and 0.000345 kPa
349.18 K | 0.000454 kPa and 0.000455 kPa and 0.000439 kPa
351.17 K | 0.000553 kPa and 0.000544 kPa and 0.000533 kPa
353.16 K | 0.000694 kPa and 0.000692 kPa and 0.000682 kPa
355.16 K | 0.000852 kPa and 0.000854 kPa and 0.000828 kPa
357.16 K | 0.00109 kPa and 0.00106 kPa

Settings | Molar enthalpy of transition or fusion, [2] [kJ/mol] | Triple point temperature, [1] [K]
Crystal 1 | 11.4 | 362.45
Nematic liquid crystal | 1.1 | 399.3

CCCc1ccc(C(=O)O)cc1 [4-propylbenzoic acid]
[1], Crystal 1
Settings | vapor or sublimation pressure
331.16 K | 0.000166 kPa and 0.000162 kPa and 0.000159 kPa
333.14 K | 0.000207 kPa
335.17 K | 0.000259 kPa and 0.000252 kPa and 0.000246 kPa
337.17 K | 0.000321 kPa and 0.000318 kPa
339.15 K | 0.000397 kPa
341.16 K | 0.000501 kPa and 0.000485 kPa
343.16 K | 0.00062 kPa
345.14 K | 0.000772 kPa and 0.000774 kPa and 0.000768 kPa
347.16 K | 0.000968 kPa and 0.000944 kPa

Settings | Molar enthalpy of transition or fusion, [2] [kJ/mol] | Triple point temperature, [1] [K]
Crystal 1 | 19.7 | 415.41
Crystal 2 | 3.39 | 298.48

Source: the NIST ThermoML archive (doi:10.1016/j.jct.2004.02.001)
